Laboratory results published in patent US20080242681A1, “N-4-(6-(Hetero)Aryl-Pyrimidin-4-Ylaminophenyl)-Benzenesulfonamides as Kinase Inhibitors” (Altana Pharma AG, priority 2004, published 2008).
Counter-ions that a name gives are not always drawn. One block for each compound: values may come before it.

Assays:
[1] = tested on: primary human CD4+ T lymphocytes; experiment: CD3/CD28 costimulation assay, IL-2 release; type: cell-based; details: 48 h, IL-2 ELISA, read-out: IC50, inhibition of IL-2 release from stimulated CD4+ T lymphocytes
Method: The assay is performed with freshly isolated primary human CD4+ T lymphocytes. CD4+ T lymphocytes from whole blood are prepared using negative selection as previously described (Hatzelmann and Schudt, J. Pharmacol. Exp. Ther. 2001; 297:267-279). In brief, peripheral blood mononuclear cells (PBMC) are isolated by density gradient centrifugation using a Percoll gradient (p= 1.077 g/ml). 1×10^7 PBMC were then resuspended in 30 μl of PBS containing 0.5% FCS and human CD4+ T lymphocytes are isolated by depletion of non CD4+ T cells. For this, non-CD4+ T cells are Indirectly magnetically labeled with 10 μl of a cocktail of biotin-conjugated monoclonal antibodies (against CD8, CD14, CD16, CD19, CD36, CD56, CD123, TCR γ/δ; MACS CD4+ T cell isolation kit II, Miltenyi Biotec), as primary labeling reagent, and anti-biotin monoclonal antibodies conjugated to MicroBeads, as secondary labeling reagent The magnetically labeled non-CD4+ T cells are depleted by retaining them on a MACS column in the magnetic field of a MACS separator (Miltenyi Biotec, Bergisch Gladbach, Germany) according to the manufacturer's instruction. CD4+ T cells are resuspended in RPM 11640 containing 10% heat-inactivated FCS, 2 mM L-glutamine, 100 U/ml penicillin and 100 μg/ml streptomycin (Gibco Life Technologies).
2×10^5 CD4+ T cells in a total assay volume of 200 μl are stimulated via the T-cell receptor and the costimulatory molecule CO28 by using corresponding selective mAbs as previously described (Hatzelmann and Schudt, J. Pharmacol. Exp. Ther. 2001; 297:267-279). The assay is performed in 96 well tissue culture plates (655180, flat bottom, Greiner, Frickenhausen, Germany). Cells were maintained at 37° C. in a humidified atmosphere of 5% CO2 in an incubator (type BB6220 CU, Heraeus Instruments, Hanau, Germany). For determination of IL-2 level, all assays are performed in duplicate, and after 48 h of growth, supernatants are removed, pooled in 96 well plates (650101, U-shape, Greiner) and stored at −20° C. before measurement of IL-2 with a commercially available enzymimmunoassay kit from Coulter-Immunotech Diagnostics (Marseille, France) according to the manufacturer's instruction. For each experiment the appropriate dilution factor for IL-2 is determined. Dilutions are performed in diluent D (Coulter-Immunotech Diagnostics) and IL-2 for one condition is determined from the pool fraction in duplicate in a ELISA-reader (Rainbow, Tecan, Crailsheim, Germany) at 450 nm.
To investigate the effect of a test compound on the IL-2 release of stimulated CD4+ T cells, six three-fold dilution steps in duplicates per test compound are performed (final DMSO concentration 0.1%). […] The inhibition obtained In the presence of a test compound is calculated as percent inhibition of the high control. […]

PKCδ = target: T1, PKCδ (Homo sapiens, UniProt Q05655); experiment: Protein Kinase C δ assay (SPA); type: biochemical; details: human recombinant PKCδ, PKCη pseudosubstrate, read-out: IC50, inhibition of PKC δ
T1 construct: purchased Panvera
T1 sequence (Q05655 whole entry): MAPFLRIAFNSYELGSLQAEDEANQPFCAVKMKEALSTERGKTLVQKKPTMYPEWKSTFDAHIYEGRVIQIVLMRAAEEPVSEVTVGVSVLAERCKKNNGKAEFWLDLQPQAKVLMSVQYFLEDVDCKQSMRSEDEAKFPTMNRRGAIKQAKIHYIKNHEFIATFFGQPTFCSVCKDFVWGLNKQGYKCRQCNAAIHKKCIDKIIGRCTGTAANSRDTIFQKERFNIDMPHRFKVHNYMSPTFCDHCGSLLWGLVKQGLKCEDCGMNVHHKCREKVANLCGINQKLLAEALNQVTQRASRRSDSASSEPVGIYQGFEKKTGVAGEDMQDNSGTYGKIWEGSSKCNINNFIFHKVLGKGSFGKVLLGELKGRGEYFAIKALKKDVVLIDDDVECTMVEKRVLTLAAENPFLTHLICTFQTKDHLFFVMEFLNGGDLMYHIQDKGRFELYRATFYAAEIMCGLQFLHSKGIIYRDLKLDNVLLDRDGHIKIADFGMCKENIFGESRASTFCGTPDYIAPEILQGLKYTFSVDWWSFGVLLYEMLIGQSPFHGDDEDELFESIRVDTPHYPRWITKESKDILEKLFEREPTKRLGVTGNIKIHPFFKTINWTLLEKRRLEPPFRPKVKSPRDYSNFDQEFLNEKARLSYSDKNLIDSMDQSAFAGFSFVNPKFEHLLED
Method: (§1) The compounds of formula 1 are tested for their activity on different protein kinases and PKC isoforms using a scintillation proximity assay (SPA, Amersham International plc). ^33P-labeled peptides are captured onto streptavidin coated yttrium silicate SPA beads. β-particles, emitted from the captured ^33P-labeled substrate in close proximity to the bead are able to excite the scintillant, resulting in the generation of quantifiable light. The assay is performed in a 96-well polystyrene microtiterplate (1450-514, Isoplates, Wallac, Turku, Finland). The reaction mixture (50 μl) contains 10 μl of the test compound together with 10 μl of the relevant kinase, diluted in the relevant dilution buffer, 5 μl of 10 μM phorbol myristate acetate (PMA) in H2O, 5 μl of 1.6 mM phosphatidylserine (Sigma-Aldrich Chemie GmbH, Stein-heim, Germany) in 20 mM Tris/HCL buffer pH 7.4, 5 μl of 0.3% BSA in H2O, 5 μl of 30 μM relevant substrate and 10 μl of 5 μM ATP and 0.1 μCi of ^33P-ATP (Amersham, Freiburg, Germany) in 200 mM Tris/HCL pH 7.5 and 200 mM MgCl2. Incubation is performed for 40 min at room temperature (RT) without shaking. Reaction is stopped by adding 150 μl of cold stop solution containing 10 mM ATP, 5 mM EGTA pH 7.5, 0.1% Triton X-100 and 0.2 mg streptavidin coated yttrium silicate SPA beads (Amersham, RPNQ 0012). The sealed plate is incubated for 60 min at RT. Thereafter the MTP is counted in a Microbeta Jet (Wallac). IC50 measurement is performed on a routine basis by incubation a serial dilution of inhibitor at concentrations ranging between 0.01 and 100 μM according to the method described above. Background values are the signals of the reaction mixture without addition of the relevant kinase and are subtracted from all values. 100% values are the signals of the reaction mixture without addition of inhibitors.
Dependent on the efficacy of the inhibitors In the various test systems, corresponding IC50 values are calculated from concentration-inhibition curves by nonlinear regression analysis using the program GraphPad Prism (GraphPad Software Inc., San Diego, Calif.). […]

responder T cells = experiment: Mixed lymphocyte reaction (MLR), T cell proliferation; type: cell-based; details: [3H]thymidine incorporation after 48 h, read-out: IC50, inhibition of MLR-mediated T-cell proliferation
Method: For MLR cultures 4×10^5 responder T cells are incubated in duplicates with 2×10^5 mitomycin C-treated allogeneic stimulator T cells in a total volume of 200 μl RPMI 1640 medium supplemented with 10% FCS, 2 mM L-glutamine, 100 U/ml penicillin and 100 μg/ml streptomycin (Gibco Life Technologies) in 96 well tissue culture plates (655180, flat bottom, Greiner). Cells are maintained at 37° C. in a humidified atmosphere of 5% CO2. After 48 h of growth, cells are pulsed with 1 μCi [^3H]thymidine and incorporation of [^3H]thymidine is measured with a Topcount radioactive counter (Packard). To investigate the effect of a test compound on MLR-mediated T cell proliferation six three-fold dilution steps in duplicates per test compound are performed (final DMSO concentration 0.1%). Low control values are the proliferation of responder cells alone; high controls are from mixed lymphocyte cells without any test samples. Low controls are subtracted from all values. The inhibition obtained in the presence of a test compound is calculated as percent Inhibition of the high control. The concentration of test compounds resulting in 50% inhibition (IC50) is determined from the dose-response curves. The examples 91, 128, 133 and 137 inhibit MLR-mediated T-cell proliferation in this assay with an IC50<1 μM.

PKCθ = target: T2, PKCθ (Homo sapiens, UniProt Q04759); experiment: Protein Kinase C θ assay (SPA); type: biochemical; details: human recombinant PKCθ from Sf21 insect cells, read-out: IC50, inhibition of PKC θ
T2 construct: made in house; host or cells: Sf21 insect cells
T2 sequence (Q04759 whole entry): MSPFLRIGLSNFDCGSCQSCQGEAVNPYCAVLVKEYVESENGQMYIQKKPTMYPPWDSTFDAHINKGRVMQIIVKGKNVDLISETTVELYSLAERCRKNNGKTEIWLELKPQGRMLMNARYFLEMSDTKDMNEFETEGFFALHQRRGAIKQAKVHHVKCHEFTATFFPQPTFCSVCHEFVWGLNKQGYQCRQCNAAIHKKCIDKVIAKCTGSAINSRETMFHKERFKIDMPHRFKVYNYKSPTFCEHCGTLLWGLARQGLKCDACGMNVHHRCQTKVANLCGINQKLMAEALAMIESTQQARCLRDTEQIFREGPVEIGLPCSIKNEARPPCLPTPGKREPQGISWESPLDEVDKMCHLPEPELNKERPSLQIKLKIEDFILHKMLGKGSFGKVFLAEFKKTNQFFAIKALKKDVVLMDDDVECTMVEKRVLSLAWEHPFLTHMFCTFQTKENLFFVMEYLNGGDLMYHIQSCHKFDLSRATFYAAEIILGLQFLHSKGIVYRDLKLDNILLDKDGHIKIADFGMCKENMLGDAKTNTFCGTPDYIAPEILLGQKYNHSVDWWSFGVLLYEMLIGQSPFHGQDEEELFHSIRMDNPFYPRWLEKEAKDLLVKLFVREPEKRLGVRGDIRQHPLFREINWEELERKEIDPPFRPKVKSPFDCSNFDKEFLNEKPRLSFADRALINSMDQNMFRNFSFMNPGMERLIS
Method: as §1
(§2) Dependent on the efficacy of the inhibitors In the various test systems, corresponding IC50 values are calculated from concentration-inhibition curves by nonlinear regression analysis using the program GraphPad Prism (GraphPad Software Inc., San Diego, Calif.).
(§3) Human recombinant nickel bead purified PKCθ from Sf21 insect cells is used under the assay conditions as described above (Section A.1). The enzyme is diluted in PKC dilution buffer containing 1 mM Hepes pH 7.4, 0.5 mM DTT and 0.001% Triton X-100. The kinase reaction is performed with the biotinylated PKCθ pseudosubstrate solved in H2O. The examples 8, 22, 46, 115, 118 and 161 inhibit PKC 9 in this assay with an IC50<1 μM.

PKCη = target: T3, PKCη (Homo sapiens, UniProt P24723); experiment: Protein Kinase C η assay (SPA); type: biochemical; details: human recombinant PKCη from Sf21 insect cells, read-out: IC50, inhibition of PKC η
T3 construct: made in house; host or cells: Sf21 insect cells
T3 sequence (P24723 whole entry): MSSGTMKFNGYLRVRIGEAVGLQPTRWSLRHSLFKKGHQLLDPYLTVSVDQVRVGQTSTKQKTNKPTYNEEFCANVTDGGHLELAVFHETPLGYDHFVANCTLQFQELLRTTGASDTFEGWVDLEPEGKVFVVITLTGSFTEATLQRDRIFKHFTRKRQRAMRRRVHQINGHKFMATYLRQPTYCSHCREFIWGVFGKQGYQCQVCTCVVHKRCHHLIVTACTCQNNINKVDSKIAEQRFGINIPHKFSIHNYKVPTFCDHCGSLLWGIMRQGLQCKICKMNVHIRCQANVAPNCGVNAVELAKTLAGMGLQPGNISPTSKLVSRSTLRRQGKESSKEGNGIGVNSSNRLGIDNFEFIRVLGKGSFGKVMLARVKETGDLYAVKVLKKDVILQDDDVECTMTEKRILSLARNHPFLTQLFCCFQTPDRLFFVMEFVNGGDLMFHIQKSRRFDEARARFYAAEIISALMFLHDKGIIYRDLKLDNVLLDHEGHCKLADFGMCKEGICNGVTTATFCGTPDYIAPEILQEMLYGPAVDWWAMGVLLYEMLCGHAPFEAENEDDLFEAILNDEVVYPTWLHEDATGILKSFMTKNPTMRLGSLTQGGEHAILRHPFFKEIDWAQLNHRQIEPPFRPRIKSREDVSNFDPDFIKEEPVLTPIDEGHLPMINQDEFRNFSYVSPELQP
Method: as §1, §2
as §3, with “PKCη” for “PKCθ”, “52, 55,” for “8, 22, 46, 115,”, “135” for “161”, “η” for “9”, “IC50 between 6 and 50” for “IC50<1”

IC50 [1]: 1000 to 9000 nM
SMILES: O=S(=O)(Nc1ccc(Nc2cc(-c3cccc4ccccc34)ncn2)cc1)c1ccccc1F [Example 13, 2-Fluoro-N-[4-(6-naphthalen-1-yl-pyrimidin-4-ylamino)-phenyl]-benzenesulfonamide]

IC50 (PKCδ): 2000 to 18000 nM
SMILES: COc1ccc(S(=O)(=O)Nc2ccc(Nc3cc(-c4ccc5c(ccn5CCN(C)C)c4)ncn3)cc2)cc1 [Example 132, N-(4-{6-[1-(2-Dimethylamino-ethyl)-1H-indol-5-yl]-pyrimidin-4-ylamino}-phenyl)-4-methoxy-benzenesulfonamide]

IC50 (PKCδ): 2000 to 18000 nM
SMILES: CCN(CC)CCCn1ccc2cc(-c3cc(Nc4ccc(NS(=O)(=O)c5ccc(F)cc5F)cc4)ncn3)ccc21 [Example 168, N-(4-{6-[1-(3-Diethylamino-propyl)-1H-indol-5-yl]-pyrimidin-4-ylamino}-phenyl)-2,4-difluoro-benzenesulfonamide formic acid salt]

SMILES: CN1CCC(COc2ccc(-c3cc(Nc4ccc(NS(=O)(=O)c5ccc(F)cc5F)cc4)ncn3)cc2)CC1 [Example 91, 2,4-Difluoro-N-(4-{6-[4-(1-methyl-piperidin-4-ylmethoxy)-phenyl]-pyrimidin-4-ylamino}-phenyl)-benzenesulfonamide formic acid salt]
IC50 (responder T cells): < 1000 nM

IC50 (PKCθ): < 1000 nM
IC50 (PKCη): 6000 to 50000 nM
SMILES: O=S(=O)(Nc1ccc(Nc2cc(-c3ccc4[nH]ccc4c3)ncn2)cc1)c1ccc(F)cc1F [Example 118, 2,4-Difluoro-N-{4-[6-(1H-indol-5-yl)-pyrimidin-4-ylamino]-phenyl}-benzenesulfonamide]

IC50 (PKCδ): 2000 to 18000 nM
SMILES: CN(C)CCn1ccc2cc(-c3cc(Nc4ccc(NS(=O)(=O)c5ccc(F)c(Cl)c5)cc4)ncn3)ccc21 [Example 138, 3-Chloro-N-{4-[6-[1-(2-dimethylamino-ethyl)-1H-indol-5-yl]pyrimidin-4-ylamino]-phenyl}-4-fluoro-benzenesulfonamide]

IC50 [1]: 1000 to 9000 nM
SMILES: COc1cccc(-c2cc(Nc3ccc(NS(=O)(=O)c4ccccc4F)cc3)ncn2)c1 [Example 20, 2-Fluoro-N-{4-[6-(3-methoxy-phenyl)-pyrimidin-4-ylamino]-phenyl}-benzenesulfonamide]

SMILES: CN(C)CCCn1ccc2cc(-c3cc(Nc4ccc(NS(=O)(=O)c5ccc(F)cc5F)cc4)ncn3)ccc21 [Example 133, N-(4-{6-[1-(3-Dimethylamino-propyl)-1H-indol-5-yl]-pyrimidin-4-ylamino}-phenyl)-2,4-difluorobenzenesulfonamide]
IC50 (responder T cells): < 1000 nM

IC50 [1]: 1000 to 9000 nM
SMILES: Cc1ccc(S(=O)(=O)Nc2ccc(Nc3cc(-c4ccc5c(ccn5CCN(C)C)c4)ncn3)cc2)cc1 [Example 136, N-(4-{6-[1-(2-Dimethylamino-ethyl)-1H-indol-5-yl]pyrimidin-4-ylamino}-phenyl)-4-methyl-benzenesulfonamide]

IC50 [1]: 1000 to 9000 nM
SMILES: COc1cccc(-c2cc(Nc3ccc(NS(=O)(=O)c4ccc(C#N)cc4)cc3)ncn2)c1 [Example 19, 4-Cyano-N-{4-[6-(3-methoxy-phenyl)-pyrimidin-4-ylamino]phenyl}benzenesulfonamide]

SMILES: CN(C)CCCn1ccc2cc(-c3cc(Nc4ccc(NS(=O)(=O)c5ccc(F)c(Cl)c5)cc4)ncn3)ccc21 [Example 137, 3-Chloro-N-(4-{6-[1-(3-dimethylamino-propyl)-1H-indol-5-yl]-pyrimidin-4-ylamino}-phenyl)-4-fluoro-benzenesulfonamide]
IC50 (responder T cells): < 1000 nM
